The record followed here is patent US12257251B2, “Use of FAK inhibitor in preparation of drug for treating tumors having NRAS mutation” (INXMED (NANJING) CO., LTD., priority 2019, dated 2025).

Series [1] concerns HT-1080 cells carrying NRAS, CDKN2A and IDH1 gene mutations. The experiment in a line: Mouse model of human fibrosarcoma (cell line HT-1080), subcutaneous tumors: tumor growth. Type of series: in vivo. The following applies: for Median tumor volume: day 13; for TGI: day 1 to day 13, from median tumor volumes; for Tumor shrinkage [X/7]: number of animals of 7 with tumor shrinkage. On the procedure:
(§1) • 1. Materials and Method: • 1.1. Design of Research • Treatment began when the median tumor volume was between 70-130 mm^3. • 10 mice in the control group, and 7 mice in the treatment group. • Oral gavage once daily. • Control: 0.5% hydroxyethyl cellulose • BI 853520: 50 mg/kg, 25 mg/kg, 12.5 mg/kg, 6 mg/kg, • Tumor volume was measured 3 times a week and body weight was monitored daily. • Evaluation of treatment outcome was based on absolute volume of individual tumors. • Tolerability was assessed based on changes in body weight.
BI853520: synthesized according to the method in the patent WO2010058032. The dry powder was suspended in 0.5% hydroxyethyl cellulose to obtain the desired concentration for each assay. The pH of this formulation was 3.5.
HT-1080 cells: HT-1080 cells carrying NRAS, CDKN2A and IDH1 gene mutations were obtained from ATCC (CRL-121). Cells were grown in T175 tissue culture flasks with DMEM+Glutamax supplemented with 10% heat-inactivated fetal bovine serum as medium. Cells were cultured at 37° C. and 5% CO2 in humidified air.
Mice: Athymic female BomTac, approximately 6-week-old NMRI-Foxn1^nu mice were purchased from Taconic, Denmark. After arriving in the animal room, mice were acclimated to the new environment for at least 3 days before being used for assay. The animals were housed under standard conditions (temperature 21.5±1.5° C. and 55±10% humidity) with 5 mice in each group. A standard diet and autoclaved tap water were provided for ad libitum feeding. A Datamars® T-IS 8010 FDX-B transponder implanted subcutaneously in the neck region and a LabMax® II fixed reader were used to identify each mouse.
To establish subcutaneous tumors, HT-1080 cells were harvested by trypsinization, centrifuged, washed and suspended in ice-cold PBS+1×10^8 cells/ml. Then 100 μl of cell suspension containing 1×10^7 cells was injected subcutaneously into the right flank of nude mice (1 site per mouse). When tumors were established and reached a diameter of 5-8 mm (7 days after cell injection), mice were randomly assigned to the treatment group and the control group.
BI853520 was suspended in 0.5% hydroxyethyl cellulose, which was administered intragastrically through gavage needle every day, and the dosage was 10 mL/Kg.
(§2) Tumor diameters were measured with calipers three times a week (Monday, Wednesday, and Friday). The volume of each tumor [in mm^3] was calculated according to the equation, “tumor volume=length×diameter^2×π/6”. To monitor the side effects of the treatment, the mice were checked daily for abnormalities and their body weights were measured daily. Animals were sacrificed at the end of the study (approximately two weeks after the start of treatment). During the study, animals with tumor necrosis or tumors larger than 2000 mm^3 were sacrificed ahead of schedule for ethical reasons.
At the end of the assay on day 13, statistical evaluation of tumor volume and body weight parameters was performed. Absolute tumor volume and percent change in body weight (referenced to initial weight on day 1) were used. A nonparametric approach was used, and the number of observations, median, minimum and maximum values were calculated. For a quick overview of possible treatment effects, the median tumor volume for each treatment group T and the median tumor volume for the control group C were used to calculate the TGI from day 1 to day d: TGI=100×[(Cd−C1)−(Td−T1)]/(Cd−C1) • wherein, C1, T1=median tumor volume in control and treatment groups at the start of the assay (day 1). • Cd, Td=median tumor volume in control and treatment groups at the end of the assay (day 13).
Each dose of test compound was compared to the control group using a one-sided descending wilcoxon test, taking reduction in tumor volume as a treatment effect and weight loss as a side effect. […]

Series [2] is described as follows: Body weight change (tolerability) in the HT-1080 mouse study. The settings on record: 12.5 mg/kg qd, end of the assay (day 13) versus day 1. Type of series: in vivo. On the procedure: as §1, §2
At the end of the assay on day 13, statistical evaluation of tumor volume and body weight parameters was performed. […] A nonparametric approach was used, and the number of observations, median, minimum and maximum values were calculated. […]

Turning to `COc1cc(C(=O)NC2CCN(C)CC2)c(F)cc1Nc1ncc(C(F)(F)F)c(Oc2cccc3c2C(=O)N(C)C3)n1` [BI853520], the results for the Median tumor volume in series [1] (6 mg/kg qd oral gavage), in series [1] (12.5 mg/kg qd oral gavage) and in series [1] (25 mg/kg qd oral gavage) were 322 mm^3, 149 mm^3 and 15 mm^3, respectively. Further, the TGI in series [1] (6 mg/kg qd) came to 70%; in series [1] (12.5 mg/kg qd), 94%; in series [1] (25 mg/kg qd), 113%; in series [1] (50 mg/kg qd) it was 107%. In addition, the “Tumor shrinkage [X/7]” value came to 1 X/7 in series [1] (6 mg/kg qd), 2 X/7 in series [1] (12.5 mg/kg qd) and 6 X/7 in series [1] (25 mg/kg qd). Further, the “Antitumor activity (in words)” value in series [1] (all dose levels (6 to 50 mg/kg qd)) was “statistically significant antitumor activity”. In series [1] (all the treatment groups (6 to 50 mg/kg qd)), the “Regression (in words)” value was “regression was observed”. Besides, the Median weight change in series [2] worked out at 5.7%.
